Laboratory results from ChEMBL document CHEMBL4507292 (2021).

Columns and labels:
D(1A) dopamine receptor = D(1A) dopamine receptor (Homo sapiens, UniProt P21728); experiment: GPCRScan assay: inhibition of D1; parameters: radioligand conc. used [nm] 0.6 – 1.3, parental cells HEKT
[1] = biological target: Alpha-1B adrenergic receptor (Homo sapiens, UniProt P35368); experiment: GPCRScan assay: inhibition of Alpha1B; parameters: radioligand conc. used [nm] 0.3 – 1.0, parental cells stable HEK
[2] = system: Tyrosine-protein kinase ABL1 (Homo sapiens), P00519 [F317I]; conditions: Compound concentration 1000.0 nM
[3] = biological target: Atypical kinase COQ8B, mitochondrial (Homo sapiens) (UniProt Q96D53); conditions: Compound concentration 1000.0 nM
[4] = system: Epidermal growth factor receptor (Homo sapiens), P00533 [UNDEFINED MUTATION]; conditions: Compound concentration 1000.0 nM
Chain of Epidermal growth factor receptor (Homo sapiens), P00533 [UNDEFINED MUTATION] (P00533 whole entry, looked up, change not shown): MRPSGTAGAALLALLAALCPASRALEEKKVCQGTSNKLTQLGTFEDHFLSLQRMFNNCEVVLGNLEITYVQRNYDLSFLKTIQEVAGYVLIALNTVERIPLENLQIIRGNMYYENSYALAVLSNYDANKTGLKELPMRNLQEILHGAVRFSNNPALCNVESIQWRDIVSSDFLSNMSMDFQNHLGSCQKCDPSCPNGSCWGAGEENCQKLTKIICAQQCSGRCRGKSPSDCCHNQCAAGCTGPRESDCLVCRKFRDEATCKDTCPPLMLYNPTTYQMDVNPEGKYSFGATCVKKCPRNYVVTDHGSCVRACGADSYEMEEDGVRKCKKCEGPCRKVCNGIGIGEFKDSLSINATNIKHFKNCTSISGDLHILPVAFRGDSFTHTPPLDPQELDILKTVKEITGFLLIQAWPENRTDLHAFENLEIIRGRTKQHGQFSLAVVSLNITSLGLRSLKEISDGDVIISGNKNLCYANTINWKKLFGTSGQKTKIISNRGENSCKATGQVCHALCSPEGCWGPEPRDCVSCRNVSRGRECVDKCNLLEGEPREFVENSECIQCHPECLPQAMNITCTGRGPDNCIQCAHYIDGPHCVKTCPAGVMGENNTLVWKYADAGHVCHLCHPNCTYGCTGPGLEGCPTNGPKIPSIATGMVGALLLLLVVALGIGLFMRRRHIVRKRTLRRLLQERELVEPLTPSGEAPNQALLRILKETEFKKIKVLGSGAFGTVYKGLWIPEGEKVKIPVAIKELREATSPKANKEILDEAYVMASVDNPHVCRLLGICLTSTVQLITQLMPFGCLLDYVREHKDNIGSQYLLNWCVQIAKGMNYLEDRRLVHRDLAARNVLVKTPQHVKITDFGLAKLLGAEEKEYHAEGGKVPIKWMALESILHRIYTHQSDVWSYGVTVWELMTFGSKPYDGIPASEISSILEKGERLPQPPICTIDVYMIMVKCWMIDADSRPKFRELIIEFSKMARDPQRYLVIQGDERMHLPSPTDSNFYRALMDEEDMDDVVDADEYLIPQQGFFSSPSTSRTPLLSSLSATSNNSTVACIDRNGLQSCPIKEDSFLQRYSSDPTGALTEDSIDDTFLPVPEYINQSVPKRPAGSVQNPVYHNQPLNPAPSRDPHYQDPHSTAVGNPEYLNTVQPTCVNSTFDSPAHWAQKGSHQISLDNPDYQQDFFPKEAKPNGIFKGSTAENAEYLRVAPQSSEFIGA

[5] = system: Epidermal growth factor receptor (Homo sapiens), P00533 [UNDEFINED MUTATION]; conditions: Compound concentration 1000.0 nM; remark: listed apart in the source
[6] = biological target: Fibroblast growth factor receptor 3 (Homo sapiens) (UniProt P22607); conditions: Compound concentration 1000.0 nM
[7] = system: Receptor-type tyrosine-protein kinase FLT3 (Homo sapiens), P36888 [UNDEFINED MUTATION]; conditions: Compound concentration 1000.0 nM
[8] = biological target: Rhodopsin kinase GRK1 (Homo sapiens) (UniProt Q15835); conditions: Compound concentration 1000.0 nM
[9] = biological target: Mitogen-activated protein kinase 9 (Homo sapiens) (UniProt P45984); conditions: Compound concentration 1000.0 nM
Chain of Mitogen-activated protein kinase 9 (Homo sapiens) (P45984 whole entry, looked up): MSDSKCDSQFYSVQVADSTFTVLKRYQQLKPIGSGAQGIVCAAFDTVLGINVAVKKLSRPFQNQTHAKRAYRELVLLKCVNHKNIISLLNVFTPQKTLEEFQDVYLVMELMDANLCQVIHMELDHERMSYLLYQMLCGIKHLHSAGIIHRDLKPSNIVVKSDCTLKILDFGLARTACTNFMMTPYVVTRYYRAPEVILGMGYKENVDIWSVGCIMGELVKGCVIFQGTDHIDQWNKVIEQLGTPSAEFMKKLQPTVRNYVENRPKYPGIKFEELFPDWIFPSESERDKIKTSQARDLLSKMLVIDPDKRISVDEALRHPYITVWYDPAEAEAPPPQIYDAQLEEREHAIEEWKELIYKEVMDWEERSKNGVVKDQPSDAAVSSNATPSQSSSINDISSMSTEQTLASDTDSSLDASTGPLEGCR

[10] = system: Mast/stem cell growth factor receptor Kit (Homo sapiens), P10721 [V559D,T670I]; conditions: Compound concentration 1000.0 nM
[11] = system: Mast/stem cell growth factor receptor Kit (Homo sapiens), P10721 [V559D,V654A]; conditions: Compound concentration 1000.0 nM
[12] = biological target: Mitogen-activated protein kinase kinase kinase 13 (Homo sapiens) (UniProt O43283); conditions: Compound concentration 1000.0 nM
[13] = biological target: Serine/threonine-protein kinase MRCK beta (Homo sapiens) (UniProt Q9Y5S2); conditions: Compound concentration 1000.0 nM
[14] = biological target: Serine/threonine-protein kinase mTOR (Homo sapiens) (UniProt P42345); conditions: Compound concentration 1000.0 nM
[15] = biological target: Myosin light chain kinase family member 4 (Homo sapiens) (UniProt Q86YV6); conditions: Compound concentration 1000.0 nM
Chain of Myosin light chain kinase family member 4 (Homo sapiens) (Q86YV6 whole entry): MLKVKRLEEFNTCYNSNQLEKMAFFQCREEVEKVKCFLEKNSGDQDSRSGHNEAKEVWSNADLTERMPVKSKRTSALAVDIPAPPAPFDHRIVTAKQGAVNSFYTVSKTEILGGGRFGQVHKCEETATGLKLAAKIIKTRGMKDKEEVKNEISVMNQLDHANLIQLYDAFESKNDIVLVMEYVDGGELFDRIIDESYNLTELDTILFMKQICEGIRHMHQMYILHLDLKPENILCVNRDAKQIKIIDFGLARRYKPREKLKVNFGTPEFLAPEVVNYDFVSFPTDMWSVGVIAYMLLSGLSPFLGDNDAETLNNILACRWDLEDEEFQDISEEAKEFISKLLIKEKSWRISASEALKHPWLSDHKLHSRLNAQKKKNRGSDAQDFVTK

[16] = biological target: Serine/threonine-protein kinase Nek9 (Homo sapiens) (UniProt Q8TD19); conditions: Compound concentration 1000.0 nM
Chain of Serine/threonine-protein kinase Nek9 (Homo sapiens) (Q8TD19 whole entry): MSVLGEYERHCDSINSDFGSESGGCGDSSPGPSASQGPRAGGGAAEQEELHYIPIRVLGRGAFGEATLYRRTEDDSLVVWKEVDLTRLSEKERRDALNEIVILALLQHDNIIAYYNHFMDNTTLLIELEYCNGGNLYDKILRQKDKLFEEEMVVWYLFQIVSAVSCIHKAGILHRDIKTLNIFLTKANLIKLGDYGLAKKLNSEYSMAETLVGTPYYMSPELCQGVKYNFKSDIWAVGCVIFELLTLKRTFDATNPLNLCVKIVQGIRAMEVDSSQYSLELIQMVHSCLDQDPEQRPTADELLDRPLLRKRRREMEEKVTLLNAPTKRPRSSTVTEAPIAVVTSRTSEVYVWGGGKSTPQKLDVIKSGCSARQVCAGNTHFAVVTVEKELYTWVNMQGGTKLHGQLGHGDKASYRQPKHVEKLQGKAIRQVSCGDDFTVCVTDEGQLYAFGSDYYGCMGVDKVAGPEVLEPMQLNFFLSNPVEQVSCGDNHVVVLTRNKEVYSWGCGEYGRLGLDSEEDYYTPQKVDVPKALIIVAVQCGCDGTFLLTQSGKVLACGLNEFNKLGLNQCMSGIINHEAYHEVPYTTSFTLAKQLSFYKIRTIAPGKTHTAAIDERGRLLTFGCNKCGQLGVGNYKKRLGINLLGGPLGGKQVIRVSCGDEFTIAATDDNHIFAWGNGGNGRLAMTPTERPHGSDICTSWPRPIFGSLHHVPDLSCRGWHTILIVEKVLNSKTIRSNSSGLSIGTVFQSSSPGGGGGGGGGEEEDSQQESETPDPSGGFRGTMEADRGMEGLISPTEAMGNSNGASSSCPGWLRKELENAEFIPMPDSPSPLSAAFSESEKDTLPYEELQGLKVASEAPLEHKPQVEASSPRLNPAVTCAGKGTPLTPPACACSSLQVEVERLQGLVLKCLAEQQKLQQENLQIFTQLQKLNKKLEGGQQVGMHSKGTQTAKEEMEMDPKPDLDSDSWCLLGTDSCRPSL

[17] = biological target: Serine/threonine-protein kinase OSR1 (Homo sapiens) (UniProt O95747); conditions: Compound concentration 1000.0 nM
Chain of Serine/threonine-protein kinase OSR1 (Homo sapiens) (O95747 2-527 limits assumed): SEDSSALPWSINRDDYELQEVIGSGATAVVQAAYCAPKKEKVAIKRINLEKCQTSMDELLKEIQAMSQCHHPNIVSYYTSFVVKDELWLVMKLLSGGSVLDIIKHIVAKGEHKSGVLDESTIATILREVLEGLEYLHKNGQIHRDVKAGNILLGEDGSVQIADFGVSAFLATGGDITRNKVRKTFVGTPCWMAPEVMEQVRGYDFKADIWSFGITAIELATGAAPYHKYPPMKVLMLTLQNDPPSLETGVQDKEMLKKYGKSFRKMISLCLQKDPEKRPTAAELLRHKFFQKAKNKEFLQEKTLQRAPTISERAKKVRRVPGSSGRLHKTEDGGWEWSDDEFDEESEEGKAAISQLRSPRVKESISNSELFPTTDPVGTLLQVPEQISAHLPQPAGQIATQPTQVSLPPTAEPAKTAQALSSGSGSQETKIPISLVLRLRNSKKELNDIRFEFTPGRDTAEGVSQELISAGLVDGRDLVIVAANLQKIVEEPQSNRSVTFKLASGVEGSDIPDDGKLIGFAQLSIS

[18] = biological target: Phosphatidylinositol 4,5-bisphosphate 3-kinase catalytic subunit beta isoform (Homo sapiens) (UniProt P42338); conditions: Compound concentration 1000.0 nM
[19] = biological target: Membrane-associated tyrosine- and threonine-specific cdc2-inhibitory kinase (Homo sapiens) (UniProt Q99640); conditions: Compound concentration 1000.0 nM
Chain of Membrane-associated tyrosine- and threonine-specific cdc2-inhibitory kinase (Homo sapiens) (Q99640 whole entry): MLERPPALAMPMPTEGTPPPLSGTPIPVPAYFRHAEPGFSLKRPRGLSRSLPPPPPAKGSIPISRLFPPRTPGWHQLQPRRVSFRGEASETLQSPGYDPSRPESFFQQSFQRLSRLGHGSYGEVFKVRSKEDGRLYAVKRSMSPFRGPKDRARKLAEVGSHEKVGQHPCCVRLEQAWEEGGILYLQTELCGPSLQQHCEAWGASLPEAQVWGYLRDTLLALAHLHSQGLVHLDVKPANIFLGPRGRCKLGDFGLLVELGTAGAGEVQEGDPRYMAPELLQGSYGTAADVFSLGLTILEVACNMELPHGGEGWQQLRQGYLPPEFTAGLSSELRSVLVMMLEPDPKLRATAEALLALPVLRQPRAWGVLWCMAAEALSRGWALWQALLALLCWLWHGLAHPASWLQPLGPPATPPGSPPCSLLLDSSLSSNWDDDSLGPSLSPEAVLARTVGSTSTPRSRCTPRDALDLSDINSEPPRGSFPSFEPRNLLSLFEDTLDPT

[20] = biological target: Serine/threonine-protein kinase PLK1 (Homo sapiens) (UniProt P53350); conditions: Compound concentration 1000.0 nM
Chain of Serine/threonine-protein kinase PLK1 (Homo sapiens) (P53350 whole entry): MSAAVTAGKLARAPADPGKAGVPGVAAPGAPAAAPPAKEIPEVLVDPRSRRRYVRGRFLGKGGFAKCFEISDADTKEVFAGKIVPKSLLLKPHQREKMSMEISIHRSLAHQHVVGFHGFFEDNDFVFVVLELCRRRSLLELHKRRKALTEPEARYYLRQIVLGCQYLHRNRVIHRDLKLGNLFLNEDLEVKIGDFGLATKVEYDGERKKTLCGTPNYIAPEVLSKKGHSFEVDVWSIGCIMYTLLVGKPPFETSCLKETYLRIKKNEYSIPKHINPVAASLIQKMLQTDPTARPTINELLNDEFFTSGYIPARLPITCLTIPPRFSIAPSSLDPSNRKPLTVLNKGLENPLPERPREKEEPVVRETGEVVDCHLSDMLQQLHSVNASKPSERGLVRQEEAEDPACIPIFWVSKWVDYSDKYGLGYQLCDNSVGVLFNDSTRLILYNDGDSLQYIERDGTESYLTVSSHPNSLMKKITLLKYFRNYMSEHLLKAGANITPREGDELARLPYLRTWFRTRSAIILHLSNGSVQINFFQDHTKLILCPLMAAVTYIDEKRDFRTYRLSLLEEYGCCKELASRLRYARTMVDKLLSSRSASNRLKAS

[21] = biological target: Protein-tyrosine kinase 2-beta (Homo sapiens) (UniProt Q14289); conditions: Compound concentration 1000.0 nM
[22] = biological target: Serine/threonine-protein kinase RIO3 (Homo sapiens) (UniProt O14730); conditions: Compound concentration 1000.0 nM
[23] = biological target: Rho-associated protein kinase 2 (Homo sapiens) (UniProt O75116); conditions: Compound concentration 1000.0 nM
[24] = biological target: Non-receptor tyrosine-protein kinase TYK2 (Homo sapiens) (UniProt P29597); conditions: Compound concentration 1000.0 nM
[25] = biological target: Serine/threonine-protein kinase WNK4 (Homo sapiens) (UniProt Q96J92); conditions: Compound concentration 1000.0 nM
[26] = biological target: D(3) dopamine receptor (Homo sapiens) (UniProt P35462); conditions: Compound concentration 10.0 uM
Chain of D(3) dopamine receptor (Homo sapiens) (P35462 whole entry): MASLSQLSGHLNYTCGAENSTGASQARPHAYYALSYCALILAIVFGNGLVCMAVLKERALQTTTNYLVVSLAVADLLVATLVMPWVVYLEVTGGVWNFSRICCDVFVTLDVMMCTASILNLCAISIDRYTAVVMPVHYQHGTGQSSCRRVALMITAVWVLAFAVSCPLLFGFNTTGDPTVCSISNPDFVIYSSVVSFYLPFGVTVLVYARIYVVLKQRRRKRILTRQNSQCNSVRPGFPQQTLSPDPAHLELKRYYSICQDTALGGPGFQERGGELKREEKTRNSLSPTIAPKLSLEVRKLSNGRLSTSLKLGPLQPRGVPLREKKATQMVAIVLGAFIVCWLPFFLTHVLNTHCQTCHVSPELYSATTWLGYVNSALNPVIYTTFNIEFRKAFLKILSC

[27] = biological target: Histamine H4 receptor (Homo sapiens) (UniProt Q9H3N8); conditions: Compound concentration 10.0 uM
[28] = biological target: T1, Alpha-2B adrenergic receptor (Homo sapiens) (UniProt P18089); conditions: Compound concentration 10.0 uM
T1 sequence (whole entry): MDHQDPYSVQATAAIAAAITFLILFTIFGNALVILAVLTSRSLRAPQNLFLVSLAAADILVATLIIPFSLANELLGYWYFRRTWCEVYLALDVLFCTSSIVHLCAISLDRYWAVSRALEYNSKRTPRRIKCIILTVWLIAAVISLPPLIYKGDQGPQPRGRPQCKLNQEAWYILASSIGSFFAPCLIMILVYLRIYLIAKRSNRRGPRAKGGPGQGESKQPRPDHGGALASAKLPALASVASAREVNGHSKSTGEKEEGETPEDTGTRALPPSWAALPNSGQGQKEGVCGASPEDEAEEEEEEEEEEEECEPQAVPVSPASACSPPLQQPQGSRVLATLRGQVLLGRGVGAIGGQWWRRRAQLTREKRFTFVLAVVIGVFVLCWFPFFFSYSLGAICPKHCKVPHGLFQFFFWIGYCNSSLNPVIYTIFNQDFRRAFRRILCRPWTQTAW

[29] = biological target: T2, Muscarinic acetylcholine receptor M5 (Homo sapiens) (UniProt P08912); conditions: Compound concentration 10.0 uM
T2 sequence (whole entry): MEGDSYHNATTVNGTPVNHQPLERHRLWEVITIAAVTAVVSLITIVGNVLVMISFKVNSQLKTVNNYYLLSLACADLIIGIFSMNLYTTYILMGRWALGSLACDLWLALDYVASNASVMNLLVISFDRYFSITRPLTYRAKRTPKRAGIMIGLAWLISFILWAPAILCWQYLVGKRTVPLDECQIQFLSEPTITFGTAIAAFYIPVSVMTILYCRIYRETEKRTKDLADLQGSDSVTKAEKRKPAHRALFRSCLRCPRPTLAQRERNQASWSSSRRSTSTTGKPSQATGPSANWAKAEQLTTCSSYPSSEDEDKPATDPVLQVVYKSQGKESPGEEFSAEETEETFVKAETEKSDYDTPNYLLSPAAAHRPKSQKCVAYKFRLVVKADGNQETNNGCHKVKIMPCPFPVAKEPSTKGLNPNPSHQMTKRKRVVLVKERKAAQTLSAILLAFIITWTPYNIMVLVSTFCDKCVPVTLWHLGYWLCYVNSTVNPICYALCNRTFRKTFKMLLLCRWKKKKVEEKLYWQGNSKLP

[30] = biological target: Sigma non-opioid intracellular receptor 1 (Homo sapiens, UniProt Q99720); conditions: Compound concentration 10.0 uM

`Cc1c(C(=O)O)cc(-c2ccc(C3CCNCC3)cc2)c2ccc(-c3ccc(C(F)(F)F)cc3)cc12` [PPTN-NC] gave a Ki (D(1A) dopamine receptor) of 2.15 µM, a Ki [1] of 3.6 µM and a residual activity [2] of 100%. For the same compound, the residual activity [3] was 100%, the residual activity [4] was 100% and the residual activity [5] was 100%. The residual activity [6] was 100%, the residual activity [7] was 95% and the residual activity [8] was 100%. It also gave a residual activity [9] of 100%, a residual activity [10] of 100% and a residual activity [11] of 100%. It also gave a residual activity [12] of 100%, a residual activity [13] of 100% and a residual activity [14] of 96%. The residual activity [15] was 100%, the residual activity [16] was 100% and the residual activity [17] was 100%. The residual activity [18] was 100%, the residual activity [19] was 100% and the residual activity [20] was 94%. For the same compound, the residual activity [21] was 100%, the residual activity [22] was 100% and the residual activity [23] was 89%. The residual activity [24] was 100%, the residual activity [25] was 100% and the inhibition [26] was 46.7%. It also gave an inhibition [27] of -4.71%, an inhibition [28] of 79% and an inhibition [29] of 10.1%. It also gave an inhibition [30] of 91.8%.

`O=C(O)c1cc(-c2ccc(C3CCNCC3)cc2)c2ccc(-c3ccc(C(F)(F)F)cc3)cc2c1` [PPTN] showed a Ki (D(1A) dopamine receptor) of 10 µM, a Ki [1] of 3.23 µM and a residual activity [2] of 100%. The residual activity [3] was 100%, the residual activity [4] was 100% and the residual activity [5] was 100%. For the same compound, the residual activity [6] was 100%, the residual activity [7] was 100% and the residual activity [8] was 100%. For the same compound, the residual activity [9] was 100%, the residual activity [10] was 100% and the residual activity [11] was 100%. It also gave a residual activity [12] of 100%, a residual activity [13] of 100% and a residual activity [14] of 90%. For the same compound, the residual activity [15] was 94%, the residual activity [16] was 100% and the residual activity [17] was 100%. For the same compound, the residual activity [18] was 100%, the residual activity [19] was 100% and the residual activity [20] was 88%. For the same compound, the residual activity [21] was 100%, the residual activity [22] was 100% and the residual activity [23] was 100%. It also gave a residual activity [24] of 100%, a residual activity [25] of 100% and an inhibition [26] of 65.6%. The inhibition [27] was -6.7%, the inhibition [28] was 85.4% and the inhibition [29] was 10.1%. It also gave an inhibition [30] of 84.9%.
